In patent US20210171948A1, “COMPOSITIONS AND METHODS FOR TARGETING GLYPICAN-2 IN THE TREATMENT OF CANCER” (Shepherd Therapeutics, Inc., priority 2019, published 2021):
Strand notation (5' to 3'): a small letter for the sugar, then the base; units joined by * are phosphorothioate-linked, units joined directly phosphodiester-linked; [ ] holds rarer units or linkages, { } end groups; capitals alone tell only the bases. d = 2'-deoxy (DNA); r = 2'-OH (RNA)

What was measured:
SK-N-BE2 cells [1] = assay: Carboplatin IC50 in siRNA-transfected cells, Cell Titer Glo 2.0 viability (Example 6); type: cell-based; settings: for Data Summary: effect of knockdown on sensitivity to carboplatin: SK-N-BE2; for IC50: SK-N-BE2 cells transfected with the labelled siRNA, carboplatin added 24 hours post transfection, 72 hour incubation
Protocol: (§1) GPC2 mRNA expression was reduced using the indicated siRNAs and changes in cell viability were assessed in multiple neuroblastoma cell lines. Cells were transfected with either a control siRNA or with GPC2 siRNA sequences 3, 5 or 7 from Table 7 using the RNAiMAX Lipofectamine kit (Invitrogen, Carlsbad, Calif.) as previously described in 96 wells for viability assays. Carboplatin was added at increasing concentrations (0 to 150 uM) to transfected cells at 24 hours post transfection. Following a 72 hour incubation period, viability measurements were made using Cell Titer Glo 2.0.

CHP212 cells [2] = assay: as above; type: cell-based; settings: for Data Summary: effect of knockdown on sensitivity to carboplatin: CHP212; for IC50: CHP212 cells transfected with the labelled siRNA, carboplatin added 24 hours post transfection, 72 hour incubation
Protocol: as §1

SH-SY5Y cells [3] = assay: as above; type: cell-based; settings: for IC50: SH-SY5Y cells transfected with the labelled siRNA, carboplatin added 24 hours post transfection, 72 hour incubation
Protocol: as §1

CHLA-90 cells [4] = assay: as above; type: cell-based; settings: for Data Summary: effect of knockdown on sensitivity to carboplatin: CHLA-90; for IC50: CHLA-90 cells transfected with the labelled siRNA, carboplatin added 24 hours post transfection, 72 hour incubation
Protocol: as §1

SK-N-BE2 cells [5] = assay: Cyclophosphamide IC50 in siRNA-transfected cells, Cell Titer Glo 2.0 viability (Example 7); type: cell-based; settings: for Data Summary: effect of knockdown on sensitivity to cyclophosphamide: SK-N-BE2; for IC50: SK-N-BE2 cells transfected with the labelled siRNA, cyclophosphamide added 24 hr post transfection, 72 hour incubation
Protocol: as §1, with “reduced with” for “reduced using”, “assays. Cyclophosphamide” for “assays. Carboplatin”, “concentrations (0-20” for “concentrations (0 to 150”, “24 hr” for “24 hours”

CHP212 cells [6] = assay: as above; type: cell-based; settings: for Data Summary: effect of knockdown on sensitivity to cyclophosphamide: CHP212; for IC50: CHP212 cells transfected with the labelled siRNA, cyclophosphamide added 24 hr post transfection, 72 hour incubation
Protocol: as §1, with “reduced with” for “reduced using”, “assays. Cyclophosphamide” for “assays. Carboplatin”, “concentrations (0-20” for “concentrations (0 to 150”, “24 hr” for “24 hours”

SH-SY5Y cells [7] = assay: as above; type: cell-based; settings: for Data Summary: effect of knockdown on sensitivity to cyclophosphamide: SH-SY5Y; for IC50: SH-SY5Y cells transfected with the labelled siRNA, cyclophosphamide added 24 hr post transfection, 72 hour incubation
Protocol: as §1, with “reduced with” for “reduced using”, “assays. Cyclophosphamide” for “assays. Carboplatin”, “concentrations (0-20” for “concentrations (0 to 150”, “24 hr” for “24 hours”

CHLA-90 cells [8] = assay: as above; type: cell-based; settings: for IC50: CHLA-90 cells transfected with the labelled siRNA, cyclophosphamide added 24 hr post transfection, 72 hour incubation
Protocol: as §1, with “reduced with” for “reduced using”, “assays. Cyclophosphamide” for “assays. Carboplatin”, “concentrations (0-20” for “concentrations (0 to 150”, “24 hr” for “24 hours”

SK-N-BE2 cells [9] = assay: Etoposide IC50 in siRNA-transfected cells, Cell Titer Glo 2.0 viability (Example 9); type: cell-based; settings: for Data Summary: effect of knockdown on sensitivity to etoposide: SK-N-BE2; for IC50: SK-N-BE2 cells transfected with the labelled siRNA, etoposide added 24 hours post transfection, 72 hour incubation
Protocol: as §1, with “reduced” for “reduced using the indicated siRNAs”, “Etoposide” for “Carboplatin”, “(0-15” for “(0 to 150”, “measurement” for “measurements”

CHP212 cells [10] = assay: as above; type: cell-based; settings: CHP212 cells transfected with the labelled siRNA; etoposide added 24 hours post transfection, 72 hour incubation
Protocol: as §1, with “reduced” for “reduced using the indicated siRNAs”, “Etoposide” for “Carboplatin”, “(0-15” for “(0 to 150”, “measurement” for “measurements”

SH-SY5Y cells [11] = assay: as above; type: cell-based; settings: for Data Summary: effect of knockdown on sensitivity to etoposide: SH-SY5Y; for IC50: SH-SY5Y cells transfected with the labelled siRNA, etoposide added 24 hours post transfection, 72 hour incubation
Protocol: as §1, with “reduced” for “reduced using the indicated siRNAs”, “Etoposide” for “Carboplatin”, “(0-15” for “(0 to 150”, “measurement” for “measurements”

CHLA-90 cells [12] = assay: as above; type: cell-based; settings: for IC50: CHLA-90 cells transfected with the labelled siRNA, etoposide added 24 hours post transfection, 72 hour incubation
Protocol: as §1, with “reduced” for “reduced using the indicated siRNAs”, “Etoposide” for “Carboplatin”, “(0-15” for “(0 to 150”, “measurement” for “measurements”

GPC2 mRNA = GPC2 mRNA knockdown in neuroblastoma cell lines, representative data from a separate experiment (Tables 10-14); type: cell-based, human; design: concentration or dose not given beside the values
SK-N-BE2 cells [13] = assay: Doxorubicin IC50 in siRNA-transfected cells, Cell Titer Glo viability (Example 8); type: cell-based; settings: for IC50: SK-N-BE2 cells transfected with the labelled siRNA, doxorubicin added 24 hours post transfection, 72 hour incubation
Protocol: as §1, with “reduced” for “reduced using the indicated siRNAs”, “with GPC-2” for “with GPC2”, “assays. Doxorubicin” for “assays. Carboplatin”, “concentrations (0-5” for “concentrations (0 to 150”, “Titer Glo.” for “Titer Glo 2.0.”

CHP212 cells [14] = assay: as above; type: cell-based; settings: for Data Summary: effect of knockdown on sensitivity to doxorubicin: CHP212; for IC50: CHP212 cells transfected with the labelled siRNA, doxorubicin added 24 hours post transfection, 72 hour incubation
Protocol: as §1, with “reduced” for “reduced using the indicated siRNAs”, “with GPC-2” for “with GPC2”, “assays. Doxorubicin” for “assays. Carboplatin”, “concentrations (0-5” for “concentrations (0 to 150”, “Titer Glo.” for “Titer Glo 2.0.”

SH-SY5Y cells [15] = assay: as above; type: cell-based; settings: for IC50: SH-SY5Y cells transfected with the labelled siRNA, doxorubicin added 24 hours post transfection, 72 hour incubation
Protocol: as §1, with “reduced” for “reduced using the indicated siRNAs”, “with GPC-2” for “with GPC2”, “assays. Doxorubicin” for “assays. Carboplatin”, “concentrations (0-5” for “concentrations (0 to 150”, “Titer Glo.” for “Titer Glo 2.0.”

CHLA-90 cells [16] = assay: as above; type: cell-based; settings: for IC50: CHLA-90 cells transfected with the labelled siRNA, doxorubicin added 24 hours post transfection, 72 hour incubation
Protocol: as §1, with “reduced” for “reduced using the indicated siRNAs”, “with GPC-2” for “with GPC2”, “assays. Doxorubicin” for “assays. Carboplatin”, “concentrations (0-5” for “concentrations (0 to 150”, “Titer Glo.” for “Titer Glo 2.0.”

[17] = CHLA-90, compared to scrambled siRNA control
[18] = CHLA-136, compared to scrambled siRNA control
[19] = CHLA-172, compared to scrambled siRNA control
[20] = CHP212, compared to scrambled siRNA control
[21] = KELLY, compared to scrambled siRNA control
[22] = SH-SY5Y, compared to scrambled siRNA control
[23] = SK-N-BE2, compared to scrambled siRNA control
[24] = SKNAS, compared to scrambled siRNA control

Row | Substance | Data Summary: effect of knockdown on sensitivity to carboplatin (SK-N-BE2 cells [1]) | IC50 (SK-N-BE2 cells [1]) | Data Summary: effect of knockdown on sensitivity to carboplatin (CHP212 cells [2]) | IC50 (CHP212 cells [2]) | IC50 (SH-SY5Y cells [3]) | Data Summary: effect of knockdown on sensitivity to carboplatin (CHLA-90 cells [4]) | IC50 (CHLA-90 cells [4]) | Data Summary: effect of knockdown on sensitivity to cyclophosphamide (SK-N-BE2 cells [5]) | IC50 (SK-N-BE2 cells [5]) | Data Summary: effect of knockdown on sensitivity to cyclophosphamide (CHP212 cells [6]) | IC50 (CHP212 cells [6]) | Data Summary: effect of knockdown on sensitivity to cyclophosphamide (SH-SY5Y cells [7]) | IC50 (SH-SY5Y cells [7]) | IC50 (CHLA-90 cells [8]) | Data Summary: effect of knockdown on sensitivity to etoposide (SK-N-BE2 cells [9]) | IC50 (SK-N-BE2 cells [9]) | IC50 (CHP212 cells [10]) | Data Summary: effect of knockdown on sensitivity to etoposide (SH-SY5Y cells [11]) | IC50 (SH-SY5Y cells [11]) | IC50 (CHLA-90 cells [12]) | further results
1 | GPC2 siRNA 3: siRNA duplex: sense CCUGCUUGGACCUCGAUAA[dT][dT] (SEQ ID NO: 207), anti-sense UUAUCGAGGUCCAAGCAGG[dT][dT] (SEQ ID NO: 208) (sense CCUGCUUGGACCUCGAUAANN; antisense UUAUCGAGGUCCAAGCAGGNN; 3' dTdT overhangs, chemistry not fully specified; listed as Homo sapiens) | increases sensitivity to | 27900 nM | increases sensitivity to | 19900 nM | 2300 nM | increases sensitivity to | 100000 nM | increases sensitivity to | 2410 nM | increases sensitivity to | 870 nM | increases sensitivity to | 1500 nM | 30000 nM | 7 increases sensitivity to etoposide | 1000 nM | 30 nM | 7 increases sensitivity to etoposide | 80 nM | 350 nM | % KD; percent GPC2 mRNA reduction (knockdown) (GPC2 mRNA; [17]): 50%; % KD; percent GPC2 mRNA reduction (knockdown) (GPC2 mRNA; [18]): 25%; % KD; percent GPC2 mRNA reduction (knockdown) (GPC2 mRNA; [19]): 5%; % KD; percent GPC2 mRNA reduction (knockdown) (GPC2 mRNA; [20]): 60%; % KD; percent GPC2 mRNA reduction (knockdown) (GPC2 mRNA; [21]): 65%; % KD; percent GPC2 mRNA reduction (knockdown) (GPC2 mRNA; [22]): 55%; % KD; percent GPC2 mRNA reduction (knockdown) (GPC2 mRNA; [23]): 55%; % KD; percent GPC2 mRNA reduction (knockdown) (GPC2 mRNA; [24]): 40%; IC50 (SK-N-BE2 cells [13]): 1000 nM; Data Summary: effect of knockdown on sensitivity to doxorubicin (CHP212 cells [14]): does not increase sensitivity; IC50 (CHP212 cells [14]): 30 nM; IC50 (SH-SY5Y cells [15]): 80 nM; IC50 (CHLA-90 cells [16]): 350 nM
2 | GPC2 siRNA 7: siRNA duplex: sense CUCCUUUCUGGUUCACACA[dT][dT] (SEQ ID NO: 215), anti-sense UGUGUGAACCAGAAAGGAG[dT][dT] (SEQ ID NO: 216) (sense rCrUrCrCrUrUrUrCrUrGrGrUrUrCrArCrArCrAdTdT; antisense rUrGrUrGrUrGrArArCrCrArGrArArArGrGrArGdTdT; listed as Homo sapiens) | increases sensitivity to | 2500 nM | increases sensitivity to | 8140 nM | 470 nM | increases sensitivity to | 15000 nM | increases sensitivity to | 410 nM | increases sensitivity to | 1200 nM | increases sensitivity to | 940 nM | 10000 nM | 7 increases sensitivity to etoposide | 200 nM | 20 nM | 7 increases sensitivity to etoposide | 30 nM | 130 nM | Data Summary: effect of knockdown on sensitivity to carboplatin (SH-SY5Y cells [3]; SH-SY5Y): increases sensitivity to; Data Summary: effect of knockdown on sensitivity to cyclophosphamide (CHLA-90 cells [8]; CHLA-90): increases sensitivity to; Data Summary: effect of knockdown on sensitivity to etoposide (CHLA-90 cells [12]; CHLA-90): increases sensitivity to etoposide; % KD; percent GPC2 mRNA reduction (knockdown) (GPC2 mRNA; [17]): 65%; % KD; percent GPC2 mRNA reduction (knockdown) (GPC2 mRNA; [18]): 30%; % KD; percent GPC2 mRNA reduction (knockdown) (GPC2 mRNA; [19]): 20%; % KD; percent GPC2 mRNA reduction (knockdown) (GPC2 mRNA; [20]): 70%; % KD; percent GPC2 mRNA reduction (knockdown) (GPC2 mRNA; [21]): 73%; % KD; percent GPC2 mRNA reduction (knockdown) (GPC2 mRNA; [22]): 70%; % KD; percent GPC2 mRNA reduction (knockdown) (GPC2 mRNA; [23]): 69%; % KD; percent GPC2 mRNA reduction (knockdown) (GPC2 mRNA; [24]): 64%; Data Summary: effect of knockdown on sensitivity to doxorubicin (SK-N-BE2 cells [13]; SK-N-BE2): increases sensitivity to; IC50 (SK-N-BE2 cells [13]): 200 nM; Data Summary: effect of knockdown on sensitivity to doxorubicin (CHP212 cells [14]): does not increase sensitivity; IC50 (CHP212 cells [14]): 20 nM; Data Summary: effect of knockdown on sensitivity to doxorubicin (SH-SY5Y cells [15]; SH-SY5Y): KD with sequence 7 increases; IC50 (SH-SY5Y cells [15]): 30 nM; Data Summary: effect of knockdown on sensitivity to doxorubicin (CHLA-90 cells [16]; CHLA-90): increases sensitivity to; IC50 (CHLA-90 cells [16]): 130 nM
